Where two headings read alike, the source gives them in different places.
Target: T1, F508delCFTR (Homo sapiens, UniProt P13569, DEL508-508)
T1 construct: expressed in transfected cells; host or cells: CFBE41o- (human lung derived epithelial cell line), doxycycline-inducible expression
Assay: Cell Surface Expression-Horse Radish Peroxidase (CSE-HRP) assay
Format: cell-based
Settings: CFBE41o-F508delCFTR-HRP cells; for Maximum % activity (with co-corrector): with co-corrector (2 μM); for Maximum % activity (with co-corrector) / Maximum % activity (without co-corrector): normalized to on-plate positive control, highest concentration 20 μM
In short: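 CFBE41o- cells expressed F508delCFTR with HRP in the fourth exofacial loop, induced by 0.5 μg/mL doxycycline for 72 h at 37 °C. Compounds alone or with 2 μM co-corrector ran 18–24 h at 33 °C, 8-point 3-fold from 20 μM. Washed-cell luminol luminescence was normalized to DMSO and positive control, fitted sigmoidally for EC50 (three plates).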

[1] = test compound without co-corrector, 18-24 hours at 33° C., read-out: EC50 (without co-corrector)
[2] = with co-corrector (2 μM of 3-[(2R,4R)-4-({[1-(2,2-difluoro-1,3-benzodioxol-5-yl)cyclopropyl]carbonyl}amino)-7-methoxy-3,4-dihydro-2H-chromen-2-yl]benzoic acid), read-out: EC50 (with co-corrector)

T1 sequence (P13569 with tags, fused parts or gaps DEL508-508): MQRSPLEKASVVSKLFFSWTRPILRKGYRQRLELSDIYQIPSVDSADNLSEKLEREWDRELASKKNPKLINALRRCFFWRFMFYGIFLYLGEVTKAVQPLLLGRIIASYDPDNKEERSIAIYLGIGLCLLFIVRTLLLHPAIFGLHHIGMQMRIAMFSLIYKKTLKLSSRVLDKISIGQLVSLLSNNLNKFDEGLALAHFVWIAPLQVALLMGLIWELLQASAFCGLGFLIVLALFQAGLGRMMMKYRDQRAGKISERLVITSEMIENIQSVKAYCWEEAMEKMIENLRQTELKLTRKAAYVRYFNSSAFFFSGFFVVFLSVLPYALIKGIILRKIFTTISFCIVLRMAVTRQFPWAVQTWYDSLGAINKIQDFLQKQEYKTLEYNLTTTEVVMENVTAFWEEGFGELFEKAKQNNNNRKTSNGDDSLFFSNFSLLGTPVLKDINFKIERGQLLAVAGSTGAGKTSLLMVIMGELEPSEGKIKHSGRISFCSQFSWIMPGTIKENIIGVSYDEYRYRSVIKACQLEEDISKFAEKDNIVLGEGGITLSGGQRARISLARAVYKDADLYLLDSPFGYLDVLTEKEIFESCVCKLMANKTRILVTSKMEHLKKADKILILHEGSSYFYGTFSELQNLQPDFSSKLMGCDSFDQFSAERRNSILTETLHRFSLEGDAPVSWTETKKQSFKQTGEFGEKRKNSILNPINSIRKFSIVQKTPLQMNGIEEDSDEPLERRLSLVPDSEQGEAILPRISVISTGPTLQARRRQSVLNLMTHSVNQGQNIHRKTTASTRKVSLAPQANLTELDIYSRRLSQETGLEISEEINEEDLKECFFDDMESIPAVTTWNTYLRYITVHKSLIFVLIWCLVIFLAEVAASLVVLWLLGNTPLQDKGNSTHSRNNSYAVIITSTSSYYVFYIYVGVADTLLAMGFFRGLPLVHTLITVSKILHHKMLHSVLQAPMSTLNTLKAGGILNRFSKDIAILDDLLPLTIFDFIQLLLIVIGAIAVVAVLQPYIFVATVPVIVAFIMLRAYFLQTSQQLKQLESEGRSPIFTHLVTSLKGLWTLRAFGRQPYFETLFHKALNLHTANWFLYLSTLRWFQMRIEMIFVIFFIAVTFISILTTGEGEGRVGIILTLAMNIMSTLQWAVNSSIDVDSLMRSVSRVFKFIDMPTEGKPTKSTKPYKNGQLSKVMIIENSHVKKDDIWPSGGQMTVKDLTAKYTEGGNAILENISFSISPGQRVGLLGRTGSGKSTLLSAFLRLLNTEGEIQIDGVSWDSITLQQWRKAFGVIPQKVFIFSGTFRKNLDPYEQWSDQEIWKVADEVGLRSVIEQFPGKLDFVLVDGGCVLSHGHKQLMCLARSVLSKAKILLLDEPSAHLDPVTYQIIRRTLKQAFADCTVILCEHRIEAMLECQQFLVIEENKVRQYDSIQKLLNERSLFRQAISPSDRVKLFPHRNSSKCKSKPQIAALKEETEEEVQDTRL

Row | SMILES | EC50 [1] | EC50 [2] | Maximum % activity (with co-corrector) | Maximum % activity (without co-corrector)
1 | COc1ncc(C(F)(F)F)cc1CO[C@H]1[C@H](C(C)(C)C)[C@@H](C(=O)O)N(C(=O)OC(C)C)[C@H]1c1ccccc1Br [Example 86, (2S,3R,4S,5S)-5-(2-bromophenyl)-3-tert-butyl-4-{[2-methoxy-5-(trifluoromethyl)pyridin-3-yl]methoxy}-1-{[(propan-2-yl)oxy]carbonyl}pyrrolidine-2-carboxylic acid] | 1000 to 10000 nM | < 1000 nM | +++ (≥350) | ++ (≥100 and <200)
2 | COc1ncc(C(F)(F)F)cc1CO[C@H]1[C@H](C(C)(C)C)[C@@H](C(=O)O)N(C(=O)OC(C)C)[C@H]1c1ccccc1C(C)C [Example 87, (2S,3R,4S,5S)-3-tert-butyl-4-{[2-methoxy-5-(trifluoromethyl)pyridin-3-yl]methoxy}-1-{[(propan-2-yl)oxy]carbonyl}-5-[2-(propan-2-yl)phenyl]pyrrolidine-2-carboxylic acid] | 1000 to 10000 nM | 1000 to 10000 nM | +++ (≥350) | ++ (≥100 and <200)
3 | COc1ncc(C(F)(F)F)cc1CO[C@H]1[C@H](C(C)(C)C)[C@@H](C(=O)O)N(C(=O)[C@@H]2CCCO2)[C@H]1c1ccccc1 [Example 88, (2S,3R,4S,5S)-3-tert-butyl-4-{[2-methoxy-5-(trifluoromethyl)pyridin-3-yl]methoxy}-1-[(2S)-oxolane-2-carbonyl]-5-phenylpyrrolidine-2-carboxylic acid] | 1000 to 10000 nM | < 1000 nM | +++ (≥350) | ++ (≥100 and <200)
4 | COc1ncc(C(F)(F)F)cc1CO[C@H]1[C@H](C(C)(C)C)[C@@H](C(=O)O)N(C(=O)[C@@H]2CCCCO2)[C@H]1c1ccccc1 [Example 89, (2S,3R,4S,5S)-3-tert-butyl-4-{[2-methoxy-5-(trifluoromethyl)pyridin-3-yl]methoxy}-1-[(2S)-oxane-2-carbonyl]-5-phenylpyrrolidine-2-carboxylic acid] | 1000 to 10000 nM | < 1000 nM | +++ (≥350) | ++ (≥100 and <200)
5 | C=CCOC(=O)N1[C@H](C(=O)O)[C@@H](C(C)(C)C)[C@H](OCc2cc(C(F)(F)F)cnc2OC)[C@@H]1c1ccccc1 [Example 90, (2S,3R,4S,5S)-3-tert-butyl-4-{[2-methoxy-5-(trifluoromethyl)pyridin-3-yl]methoxy}-5-phenyl-1-{[(prop-2-en-1-yl)oxy]carbonyl}pyrrolidine-2-carboxylic acid] | 1000 to 10000 nM | 1000 to 10000 nM | +++ (≥350) | + (<100)
6 | COc1ncc(C(F)(F)F)cc1CO[C@H]1[C@H](C(C)(C)C)[C@@H](C(=O)O)N(C(=O)[C@H]2CCCCO2)[C@H]1c1ccccc1 [Example 91, (2S,3R,4S,5S)-3-tert-butyl-4-{[2-methoxy-5-(trifluoromethyl)pyridin-3-yl]methoxy}-1-[(2R)-oxane-2-carbonyl]-5-phenylpyrrolidine-2-carboxylic acid] | 1000 to 10000 nM | 1000 to 10000 nM | +++ (≥350) | ++ (≥100 and <200)
7 | COc1ncc(C(F)(F)F)cc1CO[C@H]1[C@H](C(C)(C)C)[C@@H](C(=O)O)N(C(=O)OC(C)C)[C@H]1c1ccccc1C1CC1 [Example 92, (2S,3R,4S,5S)-3-tert-butyl-5-(2-cyclopropylphenyl)-4-{[2-methoxy-5-(trifluoromethyl)pyridin-3-yl]methoxy}-1-{[(propan-2-yl)oxy]carbonyl}pyrrolidine-2-carboxylic acid] | 1000 to 10000 nM | 1000 to 10000 nM | +++ (≥350) | ++ (≥100 and <200)

Reference: patent US10399940B2, “Substituted pyrrolidines and methods of use” (AbbVie S.à.r.l., priority 2016, dated 2019)
